Data as given in PubChem BioAssay AID1963421 (Molecular Pharmacology Branch, DTP, NCI, 2024).
One block for each compound: values may come before it.

Test system: 519858-162-T-J1-PDC complex spheroid growth, % test/control
Test: Anticancer human tumor 519858-162-T-J1-PDC patient-derived colon adenocarcinoma cell line growth inhibition [Asc]
Conditions: for viability, T/C: stronger effect = lower value
Procedure, shortened: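 Stromal components (HUVEC and hMSC) are co-assembled with the cancer cells into multicellular spheroids. Drugs are then added singly or paired, at concentrations falling by half-log increments from a clinically achievable maximum, capped at 10 microM without known Cmax.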
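Also: seven day drug exposure begun three days after spheroid seeding.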
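For viability, T/C in this document: 100% = DMSO vehicle wells and lower values mean less viable spheroid.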

- IC50 (curve of first compound, second compound 0.00949 µM): > 10 µM
- IC50 (curve of first compound, second compound 0.03 µM): > 10 µM
- IC50 (curve of first compound, second compound 0.0949 µM): > 10 µM
- IC50 (curve of first compound, second compound 0.3 µM): > 10 µM
- IC50 (curve of first compound, second compound 0.949 µM): > 10 µM
- IC50 (curve of first compound, second compound 3 µM): > 10 µM
SMILES: C#Cc1c(F)ccc2cc(O)cc(-c3ncc4c(N5CC6CCC(C5)N6)nc(OCC56CCCN5CC(F)C6)nc4c3F)c12 (centres undefined) + CCN1C(C(=O)NC23CCC(C(=O)O)(CC2)CC3)C(c2cccc(Cl)c2F)C2(C(=O)Nc3cc(Cl)ccc32)C12CCCCC2
- viability, T/C (second compound 0.00949 µM, first compound 0.0316 µM): 75.2%
- viability, T/C (second compound 0.00949 µM, first compound 0.1 µM): 104%
- viability, T/C (second compound 0.00949 µM, first compound 0.316 µM): 84.3%
- viability, T/C (second compound 0.00949 µM, first compound 1 µM): 66.3%
- viability, T/C (second compound 0.00949 µM, first compound 3.16 µM): 82.3%
- viability, T/C (second compound 0.00949 µM, first compound 10 µM): 64%
- viability, T/C (second compound 0.03 µM, first compound 0.0316 µM): 67.5%
- viability, T/C (second compound 0.03 µM, first compound 0.1 µM): 84.6%
- viability, T/C (second compound 0.03 µM, first compound 0.316 µM): 96.4%
- viability, T/C (second compound 0.03 µM, first compound 1 µM): 92.4%
- viability, T/C (second compound 0.03 µM, first compound 3.16 µM): 94.3%
- viability, T/C (second compound 0.03 µM, first compound 10 µM): 88.4%
- viability, T/C (second compound 0.0949 µM, first compound 0.0316 µM): 89.6%
- viability, T/C (second compound 0.0949 µM, first compound 0.1 µM): 99.2%
- viability, T/C (second compound 0.0949 µM, first compound 0.316 µM): 88.4%
- viability, T/C (second compound 0.0949 µM, first compound 1 µM): 64.1%
- viability, T/C (second compound 0.0949 µM, first compound 3.16 µM): 81.4%
- viability, T/C (second compound 0.0949 µM, first compound 10 µM): 69%
- viability, T/C (second compound 0.3 µM, first compound 0.0316 µM): 59.4%
- viability, T/C (second compound 0.3 µM, first compound 0.1 µM): 95.5%
- viability, T/C (second compound 0.3 µM, first compound 0.316 µM): 78.4%
- viability, T/C (second compound 0.3 µM, first compound 1 µM): 71.2%
- viability, T/C (second compound 0.3 µM, first compound 3.16 µM): 74.2%
- viability, T/C (second compound 0.3 µM, first compound 10 µM): 102%
- viability, T/C (second compound 0.949 µM, first compound 0.0316 µM): 53.3%
- viability, T/C (second compound 0.949 µM, first compound 0.1 µM): 116%
- viability, T/C (second compound 0.949 µM, first compound 0.316 µM): 81.3%
- viability, T/C (second compound 0.949 µM, first compound 1 µM): 58.5%
- viability, T/C (second compound 0.949 µM, first compound 3.16 µM): 86.6%
- viability, T/C (second compound 0.949 µM, first compound 10 µM): 93.6%
- viability, T/C (second compound 3 µM, first compound 0.0316 µM): 64.2%
- viability, T/C (second compound 3 µM, first compound 0.1 µM): 60.6%
- viability, T/C (second compound 3 µM, first compound 0.316 µM): 63.3%
- viability, T/C (second compound 3 µM, first compound 1 µM): 77.7%
- viability, T/C (second compound 3 µM, first compound 3.16 µM): 93%
- viability, T/C (second compound 3 µM, first compound 10 µM): 66.7%

- IC50 (compound alone, run of 11/07/2022): > 3 µM
- IC50 (curve of compound): > 3 µM
SMILES: CCN1C(C(=O)NC23CCC(C(=O)O)(CC2)CC3)C(c2cccc(Cl)c2F)C2(C(=O)Nc3cc(Cl)ccc32)C12CCCCC2 (centres undefined)
